Experimental findings from ChEMBL document CHEMBL1138985, “Discovery of potent, selective, and orally bioavailable pyridone-based dipeptidyl peptidase-4 inhibitors” (Bioorg Med Chem Lett, 2006) are described below.

One series deals with Dipeptidyl peptidase 8 (Homo sapiens, UniProt Q6V1X1).
The next series addresses Dipeptidyl peptidase 9 (Homo sapiens, UniProt Q86TI2).
The nature of series [1]: Half life in rat at 1 mg/kg, iv or 2 mg/kg, po. Format: ADME, organism-based. The note with it: in vivo.
Series [2] is described as follows: Bioavailability in rat at 1 mg/kg, iv or 2 mg/kg, po. The class given is ADME, organism-based. The note with it: in vivo.
Series [3] is described as follows: Plasma clearance in rat at 1 mg/kg, iv or 2 mg/kg, po. The class given is ADME, organism-based.
Another series addresses Dipeptidyl peptidase 2 (Homo sapiens, UniProt Q9UHL4). Kind of series: Inhibition of QPP.
Series [4] addresses Voltage-gated inwardly rectifying potassium channel KCNH2 (Homo sapiens, UniProt Q12809). Kind of series: Binding to human ERG potassium channel.
A short description of series [5]: Half life in dog at 1 mg/kg, iv or 2 mg/kg, po. The class given is ADME, organism-based, Canis lupus familiaris. To be noted: in vivo.
Series [6] deals with Mus musculus. Kind of series: Reduction of glucose excursion at 1 mg/kg, po in mouse by Oral Glucose Tolerance Test. The class given is functional. Also on record: scale not given: the % may be the effect or the level left.
A short description of series [7]: Plasma clearance in dog at 1 mg/kg, iv or 2 mg/kg, po. Format: ADME, organism-based, Canis lupus familiaris.
Series [8] is described as follows: Plasma clearance in rhesus monkey at 1 mg/kg, iv or 2 mg/kg, po. Format: ADME, organism-based, Macaca mulatta.
Series [9] is described as follows: Bioavailability in dog at 1 mg/kg, iv or 2 mg/kg, po. Format: ADME, organism-based, Canis lupus familiaris. To be noted: in vivo.
Series [10] can be described thus: Bioavailability in rhesus monkey at 1 mg/kg, iv or 2 mg/kg, po. Format: ADME, organism-based, Macaca mulatta. The note with it: in vivo.
Series [11] is described as follows: Half life in rhesus monkey at 1 mg/kg, iv or 2 mg/kg, po. Format: ADME, organism-based, Macaca mulatta. The note with it: in vivo.
Series [12] has as its system Mus musculus. Kind of series: Reduction of glucose excursion at 10 mg/kg, po in mouse by Oral Glucose Tolerance Test. The class given is functional. Also on record: scale not given: the % may be the effect or the level left.

Molecules are shown by their SMILES.

Sequence of Dipeptidyl peptidase 8 (Q6V1X1 whole entry): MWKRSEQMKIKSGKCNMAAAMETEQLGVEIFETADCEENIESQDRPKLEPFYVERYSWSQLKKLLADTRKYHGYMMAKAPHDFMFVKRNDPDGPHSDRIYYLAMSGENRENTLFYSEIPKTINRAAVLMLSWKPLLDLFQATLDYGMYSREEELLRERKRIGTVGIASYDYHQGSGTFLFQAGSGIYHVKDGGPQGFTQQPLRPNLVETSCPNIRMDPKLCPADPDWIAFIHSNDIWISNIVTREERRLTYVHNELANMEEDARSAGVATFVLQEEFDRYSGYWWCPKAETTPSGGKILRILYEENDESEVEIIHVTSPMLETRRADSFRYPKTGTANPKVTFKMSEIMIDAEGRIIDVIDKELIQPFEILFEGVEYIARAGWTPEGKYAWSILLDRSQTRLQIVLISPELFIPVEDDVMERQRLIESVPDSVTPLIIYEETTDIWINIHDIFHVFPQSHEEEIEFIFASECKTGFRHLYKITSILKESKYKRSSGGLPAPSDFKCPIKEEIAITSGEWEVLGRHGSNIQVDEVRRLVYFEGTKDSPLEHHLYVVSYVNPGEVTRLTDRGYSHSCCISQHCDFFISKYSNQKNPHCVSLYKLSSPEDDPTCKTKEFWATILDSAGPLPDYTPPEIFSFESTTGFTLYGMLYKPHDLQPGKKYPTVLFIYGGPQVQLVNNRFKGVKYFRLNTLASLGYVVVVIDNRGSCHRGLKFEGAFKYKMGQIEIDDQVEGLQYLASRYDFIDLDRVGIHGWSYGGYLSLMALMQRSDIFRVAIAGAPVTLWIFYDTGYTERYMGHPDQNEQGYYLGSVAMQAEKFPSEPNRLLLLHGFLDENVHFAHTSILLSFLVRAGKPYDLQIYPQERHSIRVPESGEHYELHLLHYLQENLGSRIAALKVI
Sequence of Dipeptidyl peptidase 9 (Q86TI2 whole entry): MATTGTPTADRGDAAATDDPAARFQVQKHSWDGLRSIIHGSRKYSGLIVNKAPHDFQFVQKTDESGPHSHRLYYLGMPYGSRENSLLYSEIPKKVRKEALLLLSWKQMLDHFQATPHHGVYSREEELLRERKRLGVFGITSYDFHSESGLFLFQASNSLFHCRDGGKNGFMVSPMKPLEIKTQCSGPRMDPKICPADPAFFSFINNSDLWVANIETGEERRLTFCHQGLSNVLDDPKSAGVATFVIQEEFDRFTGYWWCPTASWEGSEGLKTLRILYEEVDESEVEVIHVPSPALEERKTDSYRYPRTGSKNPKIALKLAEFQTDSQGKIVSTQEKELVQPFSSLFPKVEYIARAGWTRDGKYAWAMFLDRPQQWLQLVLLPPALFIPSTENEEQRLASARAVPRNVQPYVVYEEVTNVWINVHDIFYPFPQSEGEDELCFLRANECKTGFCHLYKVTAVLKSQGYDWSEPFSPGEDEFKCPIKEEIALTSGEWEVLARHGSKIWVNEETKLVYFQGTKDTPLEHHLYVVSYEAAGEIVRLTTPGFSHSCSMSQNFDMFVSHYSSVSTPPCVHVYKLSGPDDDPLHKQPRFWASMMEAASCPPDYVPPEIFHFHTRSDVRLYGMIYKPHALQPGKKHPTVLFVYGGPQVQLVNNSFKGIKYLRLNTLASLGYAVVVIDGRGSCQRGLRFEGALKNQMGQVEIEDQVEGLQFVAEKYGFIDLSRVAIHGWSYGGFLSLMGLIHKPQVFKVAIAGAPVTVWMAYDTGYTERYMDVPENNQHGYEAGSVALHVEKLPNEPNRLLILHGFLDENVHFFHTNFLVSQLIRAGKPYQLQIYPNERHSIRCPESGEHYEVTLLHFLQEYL
Sequence of Voltage-gated inwardly rectifying potassium channel KCNH2 (Q12809 whole entry): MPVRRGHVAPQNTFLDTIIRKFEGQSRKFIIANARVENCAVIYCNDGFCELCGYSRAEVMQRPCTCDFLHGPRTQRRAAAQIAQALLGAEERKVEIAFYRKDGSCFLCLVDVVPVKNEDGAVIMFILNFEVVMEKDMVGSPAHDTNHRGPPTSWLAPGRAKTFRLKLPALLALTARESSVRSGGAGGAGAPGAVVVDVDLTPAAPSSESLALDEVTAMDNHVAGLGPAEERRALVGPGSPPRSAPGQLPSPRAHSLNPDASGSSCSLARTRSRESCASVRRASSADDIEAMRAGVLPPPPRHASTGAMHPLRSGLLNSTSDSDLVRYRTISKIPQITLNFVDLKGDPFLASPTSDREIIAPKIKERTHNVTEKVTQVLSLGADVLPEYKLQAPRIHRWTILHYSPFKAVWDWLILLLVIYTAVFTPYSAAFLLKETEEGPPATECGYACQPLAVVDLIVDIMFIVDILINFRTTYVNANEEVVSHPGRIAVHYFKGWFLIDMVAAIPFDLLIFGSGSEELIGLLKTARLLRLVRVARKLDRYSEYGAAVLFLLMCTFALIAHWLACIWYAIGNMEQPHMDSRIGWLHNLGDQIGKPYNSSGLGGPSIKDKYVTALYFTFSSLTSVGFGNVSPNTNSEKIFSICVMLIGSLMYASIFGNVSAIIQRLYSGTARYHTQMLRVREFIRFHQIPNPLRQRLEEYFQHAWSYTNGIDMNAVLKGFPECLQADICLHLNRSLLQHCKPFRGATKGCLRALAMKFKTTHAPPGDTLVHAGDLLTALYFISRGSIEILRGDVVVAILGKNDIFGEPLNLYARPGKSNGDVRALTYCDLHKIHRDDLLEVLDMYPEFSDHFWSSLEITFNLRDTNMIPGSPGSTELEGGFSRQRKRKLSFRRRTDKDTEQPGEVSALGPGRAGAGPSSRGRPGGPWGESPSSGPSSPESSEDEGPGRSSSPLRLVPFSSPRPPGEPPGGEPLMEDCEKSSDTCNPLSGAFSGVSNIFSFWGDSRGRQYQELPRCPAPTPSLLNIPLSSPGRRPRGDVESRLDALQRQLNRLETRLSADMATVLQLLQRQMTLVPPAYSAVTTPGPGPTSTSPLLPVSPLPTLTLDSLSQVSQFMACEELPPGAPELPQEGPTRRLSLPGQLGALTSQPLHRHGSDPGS

`C[C@@H](c1ccc(-c2ccc(=O)n(C)c2)cc1)[C@H](N)C(=O)N1CCCC1`: the IC50 against Dipeptidyl peptidase 8 and at Dipeptidyl peptidase 9 was above 100 µM each time.
For `COc1cc(=O)n(C)cc1-c1ccc([C@H](C)[C@H](N)C(=O)N2CC[C@H](F)C2)cc1`, the IC50 on Dipeptidyl peptidase 8 and at Dipeptidyl peptidase 9 was above 100 µM in each case.
As for `CCOC(=O)Nc1c(-c2ccc([C@H](C)[C@H](N)C(=O)N3CC[C@H](F)C3)cc2)cn(C)c(=O)c1F`, the IC50 at Dipeptidyl peptidase 8 is above 100 µM.
`C[C@@H](c1ccc(-c2ccc(=O)n(C)c2F)cc1)[C@H](N)C(=O)N1CC[C@H](F)C1.O=C(O)C(F)(F)F` showed a half-life in series [1] of 1.1 h. This compound registered a bioavailability in series [2] of 61%. For the same compound, the IC50 on Dipeptidyl peptidase 8 and against Dipeptidyl peptidase 9 was above 100 µM in each case. This compound also gave a clearance in series [3] of 11.2 mL/min/kg.
In the case of `C[C@@H](c1ccc(-c2ccc(=O)n(-c3ccc(F)cc3)c2)cc1)[C@H](N)C(=O)N1CC[C@H](F)C1`, the IC50 against Dipeptidyl peptidase 8 and on Dipeptidyl peptidase 9 was above 100 µM throughout.
The compound `C[C@@H](c1ccc(-c2cn(C)c(=O)cc2CO)cc1)[C@H](N)C(=O)N1CC[C@H](F)C1.O=C(O)C(F)(F)F` gave a half-life in [1] of 2.6 h. The bioavailability in [2] stood at 3%. The IC50 against Dipeptidyl peptidase 2, against Dipeptidyl peptidase 8 and against Dipeptidyl peptidase 9 was above 100 µM throughout. Besides, in series [3], the clearance came to 68.1 mL/min/kg.
As for `CCOC(=O)Cn1cc(-c2ccc([C@H](C)[C@H](N)C(=O)N3CC[C@H](F)C3)cc2)ccc1=O`, the IC50 at Dipeptidyl peptidase 8 and against Dipeptidyl peptidase 9 was above 100 µM throughout.
Turning to `C[C@@H](c1ccc(-c2cc(F)c(=O)n(C)c2)cc1)[C@H](N)C(=O)N1CC[C@H](F)C1`, the IC50 against Dipeptidyl peptidase 9 is above 100 µM.
`C[C@@H](c1ccc(-c2ccc(=O)n(C)c2)cc1)[C@H](N)C(=O)N1CCSC1`: the IC50 on Dipeptidyl peptidase 8 and against Dipeptidyl peptidase 9 was above 100 µM throughout.
On to `C[C@@H](c1ccc(-c2ccc(=O)n(C)c2)cc1)[C@H](N)C(=O)N1CC(F)C1`, for which the IC50 against Dipeptidyl peptidase 8 and against Dipeptidyl peptidase 9 was above 100 µM in each case.
`Cc1c(-c2ccc([C@H](C)[C@H](N)C(=O)N3CC[C@H](F)C3)cc2)cc(Br)c(=O)n1C`: the IC50 against Dipeptidyl peptidase 8 and against Dipeptidyl peptidase 9 was above 100 µM each time.
In turn, `C[C@@H](c1ccc(-c2ccc(O)nc2)cc1)[C@H](N)C(=O)N1CC[C@H](F)C1.O=C(O)C(F)(F)F` had a half-life in series [1] of 1.9 h. The bioavailability in series [2] came to 10%. Besides, the IC50 in series [4] was 8.3 µM; against Dipeptidyl peptidase 8, above 100 µM; at Dipeptidyl peptidase 9, above 100 µM. In series [3], this compound had a clearance of 35.8 mL/min/kg.
With `CCOC(=O)C(F)(F)n1cc(-c2ccc([C@H](C)[C@H](N)C(=O)N3CC[C@H](F)C3)cc2)ccc1=O`, the IC50 on Dipeptidyl peptidase 8 and against Dipeptidyl peptidase 9 was above 100 µM throughout.
Turning to `Cc1c(-c2ccc([C@H](C)[C@H](N)C(=O)N3CC[C@H](F)C3)cc2)ccc(=O)n1C`, the IC50 at Dipeptidyl peptidase 8 and on Dipeptidyl peptidase 9 was above 100 µM each time.
On to `C[C@@H](c1ccc(-c2ccc(=O)n(C)c2)cc1)[C@H](N)C(=O)N1CCC(F)(F)C1`, for which the half-maximal inhibitory concentration (IC50) at Dipeptidyl peptidase 8 and at Dipeptidyl peptidase 9 was above 100 µM throughout.
Regarding `Cc1cc(=O)n(C)cc1-c1ccc([C@H](C)[C@H](N)C(=O)N2CC[C@H](F)C2)cc1`, the half-maximal inhibitory concentration (IC50) at Dipeptidyl peptidase 8 and at Dipeptidyl peptidase 9 was above 100 µM in each case.
Consider `C[C@@H](c1ccc(-c2ccc(=O)n(C)c2)cc1)[C@H](N)C(=O)N1CC[C@H](F)C1.O=C(O)C(F)(F)F`, for which the results for the half-life in [5], in [1] and in series [11] were 3.8 h, 1.4 h and 3.9 h, respectively. The Activity stood at 33% in the series with Mus musculus [6] and 56% in the series on Mus musculus [12]. Further, the bioavailability in [2] amounted to 34%; in series [9], 95%; in series [10], 50%. The IC50 on Dipeptidyl peptidase 8 and against Dipeptidyl peptidase 9 was above 100 µM throughout. In addition, the results for the clearance in series [3], in [7] and in series [8] were 7.7 mL/min/kg, 4.7 mL/min/kg and 6.7 mL/min/kg, respectively.
Regarding `C[C@@H](c1ccc(-c2cc(Br)c(=O)n(C)c2)cc1)[C@H](N)C(=O)N1CC[C@H](F)C1`, the IC50 against Dipeptidyl peptidase 8 and at Dipeptidyl peptidase 9 was above 100 µM in each case.
Regarding `C[C@@H](c1ccc(-c2cn(C)c(=O)cc2F)cc1)[C@H](N)C(=O)N1CC[C@H](F)C1`, the IC50 against Dipeptidyl peptidase 8 and against Dipeptidyl peptidase 9 was above 100 µM each time.
Consider `C[C@@H](c1ccc(-c2cn(C)c(=O)c(Cl)c2F)cc1)[C@H](N)C(=O)N1CC[C@H](F)C1`, for which the IC50 at Dipeptidyl peptidase 8 and against Dipeptidyl peptidase 9 was above 100 µM in each case.
Take `C[C@@H](c1ccc(-c2ccc(=O)n(CC3CC3)c2)cc1)[C@H](N)C(=O)N1CC[C@H](F)C1`: the IC50 against Dipeptidyl peptidase 8 and on Dipeptidyl peptidase 9 was above 100 µM throughout.
Regarding `C[C@@H](c1ccc(-c2ccc(=O)n(C)c2)cc1)[C@H](N)C(=O)N1CCC(F)CC1`, the IC50 at Dipeptidyl peptidase 8 and on Dipeptidyl peptidase 9 was above 100 µM each time.
Regarding `CCn1cc(-c2ccc([C@H](C)[C@H](N)C(=O)N3CC[C@H](F)C3)cc2)ccc1=O`, the IC50 against Dipeptidyl peptidase 8 and against Dipeptidyl peptidase 9 was above 100 µM throughout.
